# Measurements as given in patent publication US20150038435A1, “N-TERMINALLY MODIFIED OLIGOPEPTIDES AND USES THEREOF” (Novo Nordisk A/S, priority 2012, published 2015).
# Non-standard residues stand in square brackets, D forms with d. Residues, ends and D or L forms follow the SMILES beside them. *: point of attachment. Lauroyl = CCCCCCCCCCCC(=O)*
# Columns and labels:
# Trypsin = assay: Inhibition of enzymatic degradation of a model GLP-1 (FRET substrate) by trypsin; format: biochemical; conditions: for Slope of the initial increase in fluorescence obtained during incubation with 0.001 mg/ml Trypsin: compound 1 mM; for EC50: read-out: EC50 Trypsin (0.001 mg/ml), 0.001 mg/ml trypsin, 37° C.
# Procedure, shortened: (§1)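 Initial-rate slopes of fluorescence rise (320 nm ex, 405 nm em), fitted over the linear early phase and averaged from duplicates, were plotted against inhibitor concentration and fitted logistically to give EC50. Reactions ran at 37° C in Dulbecco's PBS, with MCA/DNP GLP-1 FRET substrate added as 10 μl of 100 μM stock.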
# [1] = Hydrophobicity: retention time during reverse phase HPLC; format: physicochemical; conditions: Acquity CSH C18; pH 7.2 buffer/CH3CN gradient; 40° C.
# Text: The retention time (RT) during reverse phase HPLC was taken as a measure of hydrophobicity of an N-terminally modified peptide or oligopeptide of the invention, where the connection is: The longer the RT, the more hydrophobic N-terminally modified peptide or oligopeptide. The following running conditions were applied during HPLC analysis:
# Buffer B: 70% (v/v) aq. CH3CN
# Chymotrypsin = assay: Inhibition of enzymatic degradation of a model GLP-1 (FRET substrate) by chymotrypsin; format: biochemical; conditions: for Slope of the initial increase in fluorescence obtained during incubation with 0.001 mg/ml Chymotrypsin: compound 1 mM; for EC50: read-out: EC50 Chymotrypsin (0.001 mg/ml), 0.001 mg/ml chymotrypsin, 37° C., ± standard error if at least 3 measurements
# Procedure, shortened: as §1
# [2] = Stability of N-terminally acylated peptides or oligopeptides in GI juice; format: in vitro ADME; conditions: degradation of the compound itself in jejunum extract from rat, read-out: t 1/2 in rat GI juice
# Description: 96 well plates were coated by incubating with 0.4% Bovine serum albumin (BSA) solution for minimum of 60 min. To each well, 210 μl of buffer (Hank's balanced salt solution-4-(2-hydroxyethyl)-1-piperazineethanesulfonic acid (HBSS-HEPES) buffer) with 0.005% Tween 20 and 0.001% BSA, pH 6.5 precipitated with 3 vol. cold 96% ethanol (EtOH) w. 1% TFA), 30 μl of a substrate (100 μM insulin analogue or GLP-1 analogue in buffer) and 30 μl of N-terminally acylated peptide or oligopeptide of the invention (10 mM) were added. The plates were pre-incubated (before adding GI juice) for 60 min at 37° C. After addition of 30 μl of GI juice (10-times diluted in buffer), the plates were incubated for 60 min/37° C. on shaker. Samples (40 μl) were taken at 0, 5, 10, 20, 30 and 60 min, stopped with 3 vol. cold 96% EtOH w. 1% TFA and spun down in plates (4500 rpm for 10 min). Samples were diluted 5 times with the buffer prior to LC-MS analysis. Standard samples (0.1, 0.5, 1.0, 5.0, 10.0 μM) were prepared and treated as the samples. Standard curve was analysed both at the beginning and the end of the sequence. Two replicates of each tested conditions were included. Ion suppression was assessed by analyzing a standard at 1 μM and at 10 μM with 1 mM inhibitor present. Intact insulin or GLP-1 analoues were determined at each sample. The results were plotted against the incubation time. Half-lives of the insulin or GLP-1 analogues were determined by nonlinear regression of the results using, for example Graph Pad Prism. The half-lives were expressed relative to the half-live of the insulin or GLP-1 analogue without inhibitor present by dividing the half-lives obtained in the presence of inhibitor with those obtained in the absence of inhibitors. GI juice was prepared from male Sprague Dawley rats (200-250 g) by excising approximately 20 cm piece of mid jejunum and rinsing the inside with 2.5 ml 0.9% sodium chloride solution. The sodium chloride solution was collected in a centrifuge tube, pooled from all rats (20) and centrifuged at 4500 rpm./10 min/4° C. The supernatant was aliquoted in tubes and stored at −80° C.
# Degradation of the N-terminally fatty acid modified peptide or oligopeptide of the invention themselves in jejunum extract from rat (GI juice) and determination of half-lives, was measured as described above (example 200).
EC50 (Trypsin) [µM],RT (retention time during reverse phase HPLC as a measure of hydrophobicity) [1] [min],EC50 (Chymotrypsin) [µM],half-life ([2]; GI juice (jejunum extract)) [min],"half-life at 1 mM ([2]; male, Sprague Dawley, rat GI juice (jejunum extract), pH 6.5) [min]",SMILES,Slope of the initial increase in fluorescence obtained during incubation with 0.001 mg/ml Trypsin (Trypsin),Slope of the initial increase in fluorescence obtained during incubation with 0.001 mg/ml Chymotrypsin (Chymotrypsin)
317,6.94,200 ± 26,3.5,–,"CCCCCCCCCCCC(=O)N[C@@H](C)C(=O)N[C@@H](C)C(=O)N1CCC[C@H]1C(=O)N[C@@H](Cc1ccccc1)C(=O)O [Example 34, N-dodecanoyl-Ala-Ala-Pro-Phe-OH] (Lauroyl-AAPF-OH)",0.31,0.07
> 500,6.91,476,–,> 1000,"CCCCCCCCCCCC(=O)N[C@H](C)C(=O)N[C@H](C)C(=O)N1CCC[C@@H]1C(=O)N[C@H](Cc1ccccc1)C(=O)O [Example 1, N-dodecanoyl-DAla-DAla-DPro-DPhe-OH] (Lauroyl-[dA][dA][dP][dF]-OH)",0.39,0.41
